Measurements: PubChem BioAssay (NCI)
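Values below derive from 48-hour exposures of cells grown in 96-well plates, with endpoints linearly interpolated between the two concentrations bracketing the appropriate inhibition level. Abbreviation: GI50, concentration required for 50% inhibition of growth. TGI denotes the concentration required for complete inhibition of growth.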

Tests used:
Experiment in all cases: NCI-60 cell line screen, 48 h
[1] = tested on: 786-0 renal
[2] = tested on: A498 renal
[3] = tested on: A549 NSCLC
[4] = tested on: ACHN renal
[5] = tested on: BT-549 breast
[6] = tested on: CAKI-1 renal
[7] = tested on: CCRF-CEM leukemia
[8] = tested on: COLO 205 colon
[9] = tested on: DU-145 prostate
[10] = tested on: EKVX NSCLC
[11] = tested on: HCT-116 colon
[12] = tested on: HCT-15 colon
[13] = tested on: HL-60(TB) leukemia
[14] = tested on: HOP-62 NSCLC
[15] = tested on: HOP-92 NSCLC
[16] = tested on: HS 578T breast
[17] = tested on: HT29 colon
[18] = tested on: IGROV1 ovarian
[19] = tested on: K-562 leukemia
[20] = tested on: KM12 colon
[21] = tested on: LOX IMVI melanoma
[22] = tested on: M14 melanoma
[23] = tested on: MALME-3M melanoma
[24] = tested on: MCF7 breast
[25] = tested on: MDA-MB-231 breast
[26] = tested on: MDA-MB-435
[27] = tested on: MDA-N
[28] = tested on: MOLT-4 leukemia
[29] = tested on: NCI-H226 lung
[30] = tested on: NCI-H23 lung
[31] = tested on: NCI-H460 lung
[32] = tested on: NCI-H522 lung
[33] = tested on: NCI/ADR-RES ovarian
[34] = tested on: OVCAR-3 ovarian
[35] = tested on: OVCAR-4 ovarian
[36] = tested on: OVCAR-5 ovarian
[37] = tested on: OVCAR-8 ovarian
[38] = tested on: PC-3 prostate
[39] = tested on: RPMI-8226 leukemia
[40] = tested on: RXF 393 renal
[41] = tested on: SF-268 CNS
[42] = tested on: SF-295 CNS
[43] = tested on: SF-539 CNS
[44] = tested on: SK-MEL-2 melanoma
[45] = tested on: SK-MEL-28 melanoma
[46] = tested on: SK-MEL-5 melanoma
[47] = tested on: SK-OV-3 ovarian
[48] = tested on: SN12C renal
[49] = tested on: SNB-19 CNS
[50] = tested on: SNB-75 CNS
[51] = tested on: SR leukemia
[52] = tested on: SW-620 colon
[53] = tested on: T-47D breast
[54] = tested on: TK-10 renal
[55] = tested on: U251 CNS
[56] = tested on: UACC-257 melanoma
[57] = tested on: UACC-62 melanoma
[58] = tested on: UO-31 renal

O=C(O)c1cc[c]([Hg][S]c2ncnc3nc[nH]c23)cc1 was tested. Which GI50 [1] did it give?
Its GI50 is 5.83 µM.

What about the TGI [1] of the same compound?
Its TGI is 21.9 µM.

And the GI50 [2]?
The GI50 was over 35.3 µM.

And the TGI [2]?
The TGI was over 87.1 µM.

And the GI50 [3]?
Its GI50 is 16.4 µM.

What about the TGI [3] of the same compound?
The TGI was 33.7 µM.

What about the GI50 [4] of the same compound?
The GI50 was 11.6 µM.

And the TGI [4]?
The TGI was 23.7 µM.

And the GI50 [5]?
Its GI50 is 8.12 µM.

What about the TGI [5] of the same compound?
Its TGI is 21.6 µM.

What about the GI50 [6] of the same compound?
Its GI50 is 4.96 µM.

And the TGI [6]?
The TGI was 21.1 µM.

What about the GI50 [7] of the same compound?
The GI50 was 4.55 µM.

And the TGI [7]?
The TGI was 21.8 µM.

What about the GI50 [8] of the same compound?
The GI50 was 12.4 µM.

And the TGI [8]?
The TGI was 26.9 µM.

What about the GI50 [9] of the same compound?
Its GI50 is 7.47 µM.

And the TGI [9]?
The TGI was 25.1 µM.

And the GI50 [10]?
The GI50 was 19.2 µM.

And the TGI [10]?
Its TGI is 34.9 µM.

What about the GI50 [11] of the same compound?
Its GI50 is 4.89 µM.

What about the TGI [11] of the same compound?
The TGI was 22.3 µM.

And the GI50 [12]?
The GI50 was 11.2 µM.

And the TGI [12]?
Its TGI is 27.2 µM.

And the GI50 [13]?
Its GI50 is 0.4 µM.

What about the TGI [13] of the same compound?
Its TGI is 13.4 µM.

And the GI50 [14]?
Its GI50 is 10.7 µM.

What about the TGI [14] of the same compound?
Its TGI is 26.1 µM.

And the GI50 [15]?
The GI50 was 2.21 µM.

And the TGI [15]?
The TGI was 23 µM.

What about the GI50 [16] of the same compound?
Its GI50 is 1.5 µM.

What about the TGI [16] of the same compound?
The TGI was 6.06 µM.

And the GI50 [17]?
The GI50 was 7.27 µM.

And the TGI [17]?
The TGI was 21.7 µM.

And the GI50 [18]?
The GI50 was 9.25 µM.

And the TGI [18]?
The TGI was 23.8 µM.

And the GI50 [19]?
The GI50 was 1.7 µM.

What about the TGI [19] of the same compound?
The TGI was 15.7 µM.

What about the GI50 [20] of the same compound?
Its GI50 is 14.3 µM.

And the TGI [20]?
The TGI was over 50.1 µM.

What about the GI50 [21] of the same compound?
Its GI50 is 0.684 µM.

What about the TGI [21] of the same compound?
Its TGI is 17.1 µM.

What about the GI50 [22] of the same compound?
Its GI50 is 2.18 µM.

What about the TGI [22] of the same compound?
Its TGI is 14 µM.

What about the GI50 [23] of the same compound?
Its GI50 is 3.35 µM.

What about the TGI [23] of the same compound?
The TGI was 17.9 µM.

What about the GI50 [24] of the same compound?
Its GI50 is 2.6 µM.

What about the TGI [24] of the same compound?
Its TGI is over 38.9 µM.

And the GI50 [25]?
The GI50 was 6.59 µM.

What about the TGI [25] of the same compound?
The TGI was 21 µM.

And the GI50 [26]?
The GI50 was 3.81 µM.

And the TGI [26]?
The TGI was 16.8 µM.

And the GI50 [27]?
Its GI50 is 4.84 µM.

And the TGI [27]?
The TGI was 20.3 µM.

What about the TGI [28] of the same compound?
Its TGI is 15.3 µM.

And the GI50 [29]?
The GI50 was over 39 µM.

What about the TGI [29] of the same compound?
Its TGI is over 68 µM.

What about the GI50 [30] of the same compound?
The GI50 was 15.5 µM.

What about the TGI [30] of the same compound?
The TGI was 34.8 µM.

What about the GI50 [31] of the same compound?
The GI50 was 13.1 µM.

And the TGI [31]?
The TGI was 28.5 µM.

What about the GI50 [32] of the same compound?
Its GI50 is 1.08 µM.

What about the TGI [32] of the same compound?
The TGI was 8.24 µM.

And the GI50 [33]?
Its GI50 is 3.75 µM.

And the TGI [33]?
The TGI was 30.6 µM.

And the GI50 [34]?
Its GI50 is 1.88 µM.

What about the TGI [34] of the same compound?
The TGI was 19.9 µM.

What about the GI50 [35] of the same compound?
Its GI50 is 10.3 µM.

And the TGI [35]?
The TGI was 28.9 µM.

What about the GI50 [36] of the same compound?
The GI50 was 14.1 µM.

What about the TGI [36] of the same compound?
Its TGI is 29 µM.

What about the GI50 [37] of the same compound?
The GI50 was 4.44 µM.

And the TGI [37]?
Its TGI is 25.3 µM.

And the GI50 [38]?
Its GI50 is 8.37 µM.

What about the TGI [38] of the same compound?
The TGI was 23.5 µM.

And the GI50 [39]?
Its GI50 is 4.91 µM.

What about the TGI [39] of the same compound?
The TGI was 28.2 µM.

What about the GI50 [40] of the same compound?
The GI50 was 2.95 µM.

What about the TGI [40] of the same compound?
Its TGI is 18.8 µM.

And the GI50 [41]?
Its GI50 is 5.15 µM.

What about the TGI [41] of the same compound?
Its TGI is 19 µM.

What about the GI50 [42] of the same compound?
The GI50 was 11.7 µM.

What about the TGI [42] of the same compound?
The TGI was over 100 µM.

And the GI50 [43]?
The GI50 was 7.39 µM.

What about the TGI [43] of the same compound?
The TGI was 25.6 µM.

What about the GI50 [44] of the same compound?
The GI50 was 4.83 µM.

And the TGI [44]?
Its TGI is 19.4 µM.

What about the GI50 [45] of the same compound?
Its GI50 is 17.4 µM.

What about the TGI [45] of the same compound?
Its TGI is 32 µM.

And the GI50 [46]?
Its GI50 is 14.1 µM.

What about the TGI [46] of the same compound?
The TGI was 36.4 µM.

What about the GI50 [47] of the same compound?
Its GI50 is 10.8 µM.

And the TGI [47]?
Its TGI is 23.2 µM.

What about the GI50 [48] of the same compound?
Its GI50 is 17.5 µM.

And the TGI [48]?
Its TGI is 38.6 µM.

And the GI50 [49]?
The GI50 was over 76.7 µM.

What about the TGI [49] of the same compound?
The TGI was over 100 µM.

What about the GI50 [50] of the same compound?
Its GI50 is 1.45 µM.

And the TGI [50]?
Its TGI is 19.4 µM.

And the GI50 [51]?
The GI50 was 1.32 µM.

And the TGI [51]?
Its TGI is 7.16 µM.

What about the GI50 [52] of the same compound?
The GI50 was 11.4 µM.

And the TGI [52]?
The TGI was 23.5 µM.

And the GI50 [53]?
Its GI50 is 4.52 µM.

What about the TGI [53] of the same compound?
The TGI was 36.7 µM.

What about the GI50 [54] of the same compound?
Its GI50 is 2.59 µM.

What about the TGI [54] of the same compound?
The TGI was 14.3 µM.

What about the GI50 [55] of the same compound?
The GI50 was 14.4 µM.

What about the TGI [55] of the same compound?
Its TGI is 28.2 µM.

What about the GI50 [56] of the same compound?
The GI50 was 10.4 µM.

And the TGI [56]?
Its TGI is 22.9 µM.

And the GI50 [57]?
The GI50 was 2.88 µM.

What about the TGI [57] of the same compound?
Its TGI is 15.4 µM.

And the GI50 [58]?
The GI50 was 4.79 µM.

And the TGI [58]?
Its TGI is 17 µM.
